Entries after “also recorded” stand apart in the source; their conditions may differ.
Experiments:
[1] = test system: 3D primary human hepatocyte (PHH) spheroid NASH model; experiment: Viability (ATP, CellTiter-Glo) of 3D PHH:NPC spheroids; type: cell-based; details: 0.1 μM to 10 μM, up to 2 weeks
Description: (§1) Experiments were conducted using HepaPredict's (HepaPredict AB, Sweden) 3D primary human hepatocyte (PHH) spheroid NASH model (e.g. as published in Bell et al. Sci Rep. 2016 May 4; 6:25187. doi: 10.1038/srep25187).
Cryopreserved primary human hepatocytes were obtained from BioIVT (USA) and nonparenchymal cells (NPC) from LifeNetHealth (USA). After thawing, PHH-NPC cocultures were seeded in a multi-well 96-well Elplasia plate (Corning) in William's E medium containing 11 mM glucose, 10 μg/mL (control) or 10 mg/mL insulin (NASH), 100 nM dexamethasone, 5.5 mg/L transferrin, 6.7 μg/L selenite, 2 mM L-glutamine, 1 U/mL penicillin, 0.1 mg/mL streptomycin, and 10% fetal bovine serum (FBS). […]
After spheroid formation, cells were exposed to up to five different concentrations of the candidate molecules HK1 or HK3 (0.1 μM, 0.3 μM, 1 μM, 3 μM, and 10 μM) with or without FFA in the culture medium. […] All endpoints were evaluated after 14 days of exposure. […]
Viability was evaluated by ATP quantification using the CellTiter-Glo Luminescent Cell Viability Assay (Promega) according to the manufacturer's instructions. […] Subsequently, luminescence signals were measured using a SpectraMax iD5 multi-mode microplate reader (Molecular Devices). Viability was evaluated after up to two weeks of exposure and values are plotted as relative to vehicle (DMSO) controls with or without FFA. […]

[2] = test system: pro-collagen 1a1 in 3D PHH:NPC spheroid supernatants; experiment: Pro-collagen 1a1 ELISA in supernatants of 3D PHH:NPC NASH spheroids; type: cell-based, human; details: NASH medium
Description: as §1
(§2) Cryopreserved primary human hepatocytes were obtained from BioIVT (USA) and nonparenchymal cells (NPC) from LifeNetHealth (USA). After thawing, PHH-NPC cocultures were seeded in a multi-well 96-well Elplasia plate (Corning) in William's E medium containing 11 mM glucose, 10 μg/mL (control) or 10 mg/mL insulin (NASH), 100 nM dexamethasone, 5.5 mg/L transferrin, 6.7 μg/L selenite, 2 mM L-glutamine, 1 U/mL penicillin, 0.1 mg/mL streptomycin, and 10% fetal bovine serum (FBS). PHH-NPC cocultures were seeded in ratio of 6:1 PHH:NPC with a total of 40,000 PHH per well. When spheroids were formed, FBS was phased out and spheroids were maintained in either the same media to provide the negative control (“Ctrl”), or with addition of albumin-conjugated free fatty acid (FFA), comprised of 240 μM palmitic acid and 240 μM oleic acid (NASH medium) to provide the positive control (“NASH”). Compound exposure was conducted in NASH medium with medium exchanges every 48-72 hours.
After spheroid formation, cells were exposed to up to five different concentrations of the candidate molecules HK1 or HK3 (0.1 μM, 0.3 μM, 1 μM, 3 μM, and 10 μM) with or without FFA in the culture medium. All compound stocks and dilutions were prepared in DMSO, aliquoted and stored protected from light at −20° C. Fresh dosing solutions were prepared from these aliquots on each dosing day. All endpoints were evaluated after 14 days of exposure. […]
Supernatant from each well was collected and stored at […]. On the day of the measurement, samples were thawed and fibrosis was evaluated using the Human Pro-collagen 1 alpha 1 DuoSet ELISA (R&D Systems) where pro-collagen 1a1 levels were measured in culture supernatants. […]

[3] = test system: IL-6 secretion in 3D PHH:NPC spheroids; experiment: IL-6 secretion (Luminex) by 3D PHH:NPC NASH spheroids; type: cell-based, human; details: for IL-6 levels compared to NASH: NASH medium
Description: as §1, §2
After spheroid formation, cells were exposed to up to five different concentrations of the candidate molecules HK1 or HK3 (0.1 μM, 0.3 μM, 1 μM, 3 μM, and 10 μM) with or without FFA in the culture medium. All compound stocks and dilutions were prepared in DMSO, aliquoted and stored protected from light at −20° C. Fresh dosing solutions were prepared from these aliquots on each dosing day. All endpoints were evaluated after 14 days of exposure.
For statistical comparisons, normalized values for a given condition were compared to either the corresponding vehicle (DMSO) controls or the respective FFA (NASH) controls at the same time point using heteroscedastic unpaired two-tailed t-tests.
Secreted cytokines (IL-6 and IL-8) were measured in culture supernatants using a customized Magnetic Luminex Performance Assay (Human Cytokine Panel A, R&D Systems). The multiplexed assay was performed following the manufacturer's instructions. Standard curves were generated by resuspending the human recombinant cytokines mixture at concentrations ranging from […] with 8 points at 1:3 series dilution for the customized selection of […], IL-6 and IL-8/CXCL8. […] The fluorescence intensity was measured using a Bio-Plex 200 system (Bio-Rad), the median fluorescence intensity of each analyte was analyzed with the Bio-Plex Manage software (version 6.2) using a 5-parameter regression algorithm. […]
To assess the effect of the two candidate compounds HK1 and HK3 on hepatic inflammation, we measured levels of the pro-inflammatory cytokines IL-6 and IL-8.

Row | Compound | viability of the spheroids (ATP) relative to vehicle (DMSO) [1] | pro-collagen 1a1 levels compared to NASH ([2]; 1 μM) | pro-collagen 1a1 levels compared to NASH ([2]; 3 μM) | pro-collagen 1a1 levels compared to NASH ([2]; 10 μM) | IL-6 levels compared to NASH ([3]; 1 μM) | IL-6 levels compared to NASH ([3]; 3 μM) | IL-6 levels compared to NASH ([3]; 10 μM) | IL-6 secretion, effect in words ([3]; NASH spheroids, 1-10 μM)
1 | Cc1cc(NC(=S)/C(C#N)=C(\O)C2CC2)ccc1F [HK1, 2-Cyano-3-cyclopropyl-N-(4-fluoro-3-methyl-phenyl)-3-hydroxy-thioacrylamide] | did not affect | – | – | – | – | – | – | –
2 | Cc1cc(NC(=S)/C(C#N)=C(\O)C2CC2)ccc1[N+](=O)[O-] [HK3, 2-Cyano-3-cyclopropyl-3-hydroxy-N-(3-methyl-4-nitro-phenyl)-thioacrylamide] | did not affect | 82% | 73% | 64% | 73% | 55% | 72% | slight decrease; also recorded: stronger decrease
